SMILES strings stand for the structures.

As a reminder, the melting point is the temperature, or range, at which the solid turns liquid. `COC(=O)C1=C(C)NC(c2ncccc2F)=NC1c1ccc(F)cc1` (stereo not drawn) had a melting point of 127 to 129 °C.

On to `CCOC(=O)C1=C(C)NC(c2ncccc2F)=NC1c1ccc(Cl)cc1` (stereo not drawn), for which the melting point lay within 133 to 134 °C.

On to `COC(=O)C1=C(C)NC(c2ncccc2F)=NC1c1ccccc1` (stereo not drawn), for which the melting point lay within 110 to 111 °C.

`CCOC(=O)C1=C(C)NC(c2ncccc2F)=NC1c1c(F)cccc1F` (stereo not drawn) displayed a melting point of 140 to 142 °C.

`COC(=O)C1=C(C)NC(c2ncccc2F)=NC1c1ccccc1C(F)(F)F` (stereo not drawn): the melting point lay in the range of 165 to 167 °C.

`COC(=O)C1=C(C)NC(c2ncccc2F)=NC1c1c(Cl)cccc1Cl` (stereo not drawn): the melting point lay in the range of 180 to 182 °C.

For the compound `CCOC(=O)C1=C(C)NC(c2ncccc2F)=NC1c1c(Cl)cccc1Cl` (stereo not drawn), the melting point is 148 to 149 °C.

The compound `COC(=O)C1=C(C)NC(c2ncccc2F)=NC1c1ccc(F)cc1Cl` (stereo not drawn) showed a melting point of 121 to 123 °C.

In turn, `COC(=O)C1=C(C)NC(c2ccc(C(F)(F)F)cn2)=NC1c1ccccc1Cl` (stereo not drawn) had a melting point of 121 to 123 °C.

Compound `CCOC(=O)C1=C(C)NC(c2ncccc2Cl)=NC1c1ccccc1Cl` (stereo not drawn) showed a melting point of 138 to 140 °C.

`COC(=O)C1=C(C)NC(c2ccc(Cl)cn2)=NC1c1ccccc1Cl` (stereo not drawn) returned a melting point of 163 to 165 °C.

In the case of `C=CCOC(=O)C1=C(C)NC(c2ncccc2F)=NC1c1ccccc1Cl` (stereo not drawn), the melting point fell in the range of 124 to 126 °C.

For `CC1=C(C(=O)OCCOc2ccccc2)C(c2ccccc2Cl)N=C(c2ncccc2F)N1` (stereo not drawn), the melting point fell in the range of 123 to 125 °C.

In turn, `CCOC(=O)C1=C(C)NC(c2ncccc2F)=NC1c1ccc(I)cc1` (stereo not drawn) yielded a melting point of 145 to 146 °C.

`COC(=O)C1=C(C2CC2)NC(c2ncccc2F)=NC1c1ccccc1Cl` (stereo not drawn) registered a melting point of 120 to 122 °C.

The compound `COC(=O)C1=C(C)NC(c2ncccc2Cl)=NC1c1ccccc1Cl` (stereo not drawn) returned a melting point of 144 to 146 °C.

`COC(=O)C1=C(C)NC(c2ncccc2F)=NC1c1ccc(Cl)c([N+](=O)[O-])c1` (stereo not drawn): the melting point is 135 to 137 °C.

In turn, `COC(=O)C1=C(C)NC(c2ncccc2F)=NC1c1ccccc1Br` (stereo not drawn) showed a melting point of 143 to 144 °C.

Take `COC(=O)C1=C(C)NC(c2ncccc2F)=NC1c1ccc(Br)cc1` (stereo not drawn): the melting point was 156 to 157 °C.

For the compound `CCOC(=O)C1=C(C)NC(c2ncccc2F)=NC1c1ccc(Br)cc1` (stereo not drawn), the melting point was 134 to 135 °C.

As for `CCOC(=O)C1=C(C)NC(c2ncccc2F)=NC1c1ccc(O)cc1Cl` (stereo not drawn), the melting point is 247 to 248 °C.

In turn, `CCOC(=O)C1=C(C)NC(c2ncccc2F)=NC1c1ccc(F)cc1` (stereo not drawn) showed a melting point of 129 to 130 °C.

`CCOC(=O)C1=C(C)NC(c2ncccc2Cl)=NC1c1ccc(Br)cc1F` (stereo not drawn): the melting point was 126 to 127 °C.

`CCOC(=O)C1=C(C)NC(c2ncccc2F)=NC1c1ccc(Br)cc1F` (stereo not drawn) gave a melting point of 156 to 158 °C.

In turn, `CCOC(=O)C1=C(C)NC(c2ncccc2F)=NC1c1ccc(Cl)cc1F` (stereo not drawn) came in with a melting point of 162 to 163 °C.

In turn, `CCOC(=O)C1=C(C)NC(c2ncccc2F)=NC1c1ccc(F)cc1C` (stereo not drawn) gave a melting point of 167 to 169 °C.

The compound `CCOC(=O)C1=C(C)NC(c2ncccc2F)=NC1c1ccccc1I` (stereo not drawn) had a melting point of 163 to 164 °C.

In turn, `COC(=O)C1=C(C)NC(c2ncccc2F)=NC1c1ccc(Cl)cc1F` (stereo not drawn) displayed a melting point of 120 to 122 °C.

Compound `COC(=O)C1=C(C)NC(c2ncccc2Cl)=NC1c1ccc(Br)cc1F` (stereo not drawn) returned a melting point of 103 to 104 °C.

With `COC(=O)C1=C(C)NC(c2ncccc2F)=NC1c1ccccc1Cl.Cl` (stereo not drawn), the melting point fell in the range of 210 to 212 °C.

As for `CC(=O)C1=C(C)NC(c2ncccc2F)=NC1c1ccccc1Cl` (stereo not drawn), the melting point was 132 to 133 °C.

Compound `COC(=O)C1=C(C)NC(c2ncccc2Cl)=NC1c1ccc(F)cc1Cl` (stereo not drawn) gave a melting point of 95 to 96 °C.

Take `COC(=O)C1=C(C)NC(c2ncccc2Cl)=NC1c1ccccc1Br` (stereo not drawn): the melting point is 131 to 132 °C.

Regarding `CCOC(=O)C1=C(C)NC(c2ncccc2Cl)=NC1c1ccccc1Br` (stereo not drawn), the melting point fell in the range of 137 to 138 °C.

With `COC(=O)C1=C(C)NC(c2ncccc2F)=NC1c1ccc([N+](=O)[O-])cc1` (stereo not drawn), the melting point lay within 142 to 143 °C.

Compound `CCOC(=O)C1=C(C)NC(c2ncccc2F)=NC1c1ccc(Cl)cc1[N+](=O)[O-]` (stereo not drawn) returned a melting point of 184 to 186 °C.

With `CCOC(=O)C1=C(C)NC(c2ncccc2F)=NC1c1cc(Cl)cc(Cl)c1` (stereo not drawn), the melting point lay within 133 to 134 °C.

For the compound `COC(=O)C1=C(C)NC(c2ncccc2F)=NC1c1cc([N+](=O)[O-])c(Cl)cc1F` (stereo not drawn), the melting point lay in the range of 135 to 136 °C.

For the compound `COC(=O)C1=C(C)NC(c2ccc(F)cn2)=NC1c1ccc(F)cc1Cl` (stereo not drawn), the melting point was determined as 131 °C.

Turning to `CCOC(=O)C1=C(C)NC(c2ccc(F)cn2)=NC1c1ccc(F)cc1Cl` (stereo not drawn), the melting point was determined as 124 °C.

In turn, `CCOC(=O)C1=C(C)NC(c2ccc(OC)cn2)=NC1c1ccc(F)cc1Cl` (stereo not drawn) yielded a melting point of 141 °C.

With `COC(=O)C1=C(C)NC(c2cc(OC)ccn2)=NC1c1ccc(F)cc1Cl` (stereo not drawn), the melting point was 132 °C.

On to `COC(=O)C1=C(C)NC(c2cccc(C)n2)=NC1c1ccccc1Cl` (stereo not drawn), for which the melting point lay within 142 to 143 °C.

`COC(=O)C1=C(C)NC(c2ncccc2F)=NC1c1ccc(Cl)cc1` (stereo not drawn) registered a melting point of 139 to 140 °C.

`COC(=O)C1=C(C)NC(c2ncccc2F)=NC1c1cccc2ncc(-c3ccccc3)cc12` (stereo not drawn): the melting point fell in the range of 174 to 175 °C.

The values above are taken from US6696451B1 (dated 2004).
